Values joined by “and” are separate entries in the source; they are usually repeats but may differ in a detail not shown here. Identical values can stand only once. Toxic doses and inconclusive results are not listed.
Tested on: BDF1 mice, P388 leukemia ip, median survival T/C
Assay: NCI In Vivo Anticancer Drug Screen. Data for tumor model P388 Leukemia (intraperitoneal) in B6D2F1 (BDF1) mice
Conditions: endpoint: median survival time, higher = longer survival
How it was run: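 In tumour-bearing mice, survival after compound treatment is set against the vehicle group and given as a quotient.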

[1] = dose: 6.25 mg/kg/injection, schedule: Q01DX009 (ip), vehicle: saline with Tween-80
[2] = dose: 12.5 mg/kg/injection, schedule: Q01DX009 (ip), vehicle: saline with Tween-80
[3] = dose: 25.0 mg/kg/injection, schedule: Q01DX009 (ip), vehicle: saline with Tween-80
[4] = dose: 50.0 mg/kg/injection, schedule: Q01DX009 (ip), vehicle: saline with Tween-80
[5] = dose: 50.0 mg/kg/injection, schedule: Q04DX003 (ip), vehicle: saline with Tween-80
[6] = dose: 100.0 mg/kg/injection, schedule: Q04DX003 (ip), vehicle: saline with Tween-80
[7] = dose: 25.0 mg/kg/injection, schedule: Q01DX009 (ip), vehicle: Klucel (hydroxypropylcellulose) (HPC)
[8] = dose: 50.0 mg/kg/injection, schedule: Q01DX009 (ip), vehicle: Klucel (hydroxypropylcellulose) (HPC)
[9] = dose: 50.0 mg/kg/injection, schedule: Q04DX003 (ip), vehicle: Klucel (hydroxypropylcellulose) (HPC)
[10] = dose: 100.0 mg/kg/injection, schedule: Q01DX009 (ip), vehicle: Klucel (hydroxypropylcellulose) (HPC)
[11] = dose: 200.0 mg/kg/injection, schedule: Q01DX009 (ip), vehicle: Klucel (hydroxypropylcellulose) (HPC)
[12] = dose: 100.0 mg/kg/injection, schedule: Q04DX003 (ip), vehicle: Klucel (hydroxypropylcellulose) (HPC)
[13] = dose: 100.0 mg/kg/injection, schedule: Q01DX009 (ip), vehicle: saline with Tween-80
[14] = dose: 200.0 mg/kg/injection, schedule: Q01DX009 (ip), vehicle: saline with Tween-80
[15] = dose: 400.0 mg/kg/injection, schedule: Q01DX009 (ip), vehicle: Klucel (hydroxypropylcellulose) (HPC)
[16] = dose: 3.12 mg/kg/injection, schedule: Q01DX009 (ip), vehicle: Klucel (hydroxypropylcellulose) (HPC)
[17] = dose: 6.25 mg/kg/injection, schedule: Q01DX009 (ip), vehicle: Klucel (hydroxypropylcellulose) (HPC)
[18] = dose: 12.5 mg/kg/injection, schedule: Q01DX009 (ip), vehicle: Klucel (hydroxypropylcellulose) (HPC)

## CCC(O)C(C)C(O)C(C)C(O)C(C)C(O)C(C)C1OC(=O)CC(O)C(C)C(O)CC(O)CCCC(O)CCC(C)C(O)C2(O)C(=O)CC(CC(O)CC(O)CC(O)CC(O)CCCC(O)C1O)OC2=O (configuration not stated)
dose: 2.5 mg/kg/injection, schedule: Q01DX009 (ip), vehicle: saline
  T/C: 92 % of control
dose: 5.0 mg/kg/injection, schedule: Q01DX009 (ip), vehicle: saline
  T/C: 109 % of control
dose: 10.0 mg/kg/injection, schedule: Q01DX009 (ip), vehicle: saline
  T/C: 109 % of control

## CCOC(=O)N/N=C\c1cc(OC)c(OC)c(OC)c1
[1]
  T/C: 95 % of control
[2]
  T/C: 90 % of control
[3]
  T/C: 90 % of control
[4]
  T/C: 90 % of control
[5]
  T/C: 100 % of control
[6]
  T/C: 108 % of control
dose: 200.0 mg/kg/injection, schedule: Q04DX003 (ip), vehicle: saline with Tween-80
  T/C: 104 % of control

## O=C(c1ccc(C(=O)N2CC2)cc1)N1CC1
dose: 5.0 mg/kg/injection, schedule: Q01DX009 (ip), vehicle: saline with Tween-80
  T/C: 95 % of control
dose: 20.0 mg/kg/injection, schedule: Q01DX009 (ip), vehicle: saline with Tween-80
  T/C: 109 % of control

## C=CC1C2CCC(C2)C1Cl (configuration not stated)
dose: 50.0 mg/kg/injection, schedule: Q01DX009 (ip), vehicle: other
  T/C: 100 % of control
dose: 100.0 mg/kg/injection, schedule: Q01DX009 (ip), vehicle: other
  T/C: 104 % of control
dose: 200.0 mg/kg/injection, schedule: Q01DX009 (ip), vehicle: other
  T/C: 107 % of control

## CS(=O)(=O)Nc1ccc(Nc2c3ccccc3nc3ccccc23)cc1
dose: 15.0 mg/kg/injection, schedule: Q04DX003 (ip), vehicle: Klucel (hydroxypropylcellulose) (HPC)
  T/C: 109 % of control
[7]
  T/C: 95 % of control
[8]
  T/C: 120 % of control
[9]
  T/C: 122 % of control
dose: 100.0 mg/kg/injection, schedule: Q04DX003 (ip), vehicle: saline
  T/C: 200 % of control and 209 % of control
dose: 150.0 mg/kg/injection, schedule: Q04DX003 (ip), vehicle: Klucel (hydroxypropylcellulose) (HPC)
  T/C: 159 % of control
dose: 175.0 mg/kg/injection, schedule: Q04DX003 (ip), vehicle: saline
  T/C: 237 % of control
dose: 200.0 mg/kg/injection, schedule: Q04DX003 (ip), vehicle: saline
  T/C: 204 % of control and 223 % of control
dose: 265.0 mg/kg/injection, schedule: Q04DX003 (ip), vehicle: saline
  T/C: 250 % of control
dose: 400.0 mg/kg/injection, schedule: Q04DX003 (ip), vehicle: saline
  T/C: 272 % of control and 95 % of control and 100 % of control

## O=[N+]([O-])c1cc([N+](=O)[O-])c(Nc2cccc3ccccc23)c([N+](=O)[O-])c1
[8]
  T/C: 100 % of control
[10]
  T/C: 100 % of control
[11]
  T/C: 103 % of control

## CC1(C(Cl)(Cl)Cl)C=CC(=O)C=C1
[1]
  T/C: 110 % of control
[2]
  T/C: 115 % of control
[3]
  T/C: 98 % of control
[4]
  T/C: 107 % of control

## C=CCOCCC(=O)OCC=C
dose: 12.0 mg/kg/injection, schedule: Q01DX001 (ip), vehicle: Klucel (hydroxypropylcellulose) (HPC)
  T/C: 104 % of control
dose: 25.0 mg/kg/injection, schedule: Q01DX001 (ip), vehicle: Klucel (hydroxypropylcellulose) (HPC)
  T/C: 100 % of control
dose: 25.0 mg/kg/injection, schedule: Q04DX003 (ip), vehicle: Klucel (hydroxypropylcellulose) (HPC)
  T/C: 100 % of control
dose: 50.0 mg/kg/injection, schedule: Q01DX001 (ip), vehicle: Klucel (hydroxypropylcellulose) (HPC)
  T/C: 86 % of control
[9]
  T/C: 104 % of control
[12]
  T/C: 86 % of control and 100 % of control

## Cc1ccc(C(=O)N(O)c2ccccc2)cc1
[4]
  T/C: 98 % of control
[13]
  T/C: 95 % of control
[14]
  T/C: 104 % of control

## CCOC(=O)c1c(N)c2cnn(C)c2[nH]c1=O
dose: 100.0 mg/kg/injection, schedule: Q04DX002 (ip), vehicle: saline with Tween-80
  T/C: 100 % of control
dose: 200.0 mg/kg/injection, schedule: Q04DX002 (ip), vehicle: saline with Tween-80
  T/C: 90 % of control
dose: 400.0 mg/kg/injection, schedule: Q04DX002 (ip), vehicle: saline with Tween-80
  T/C: 90 % of control

## COc1ccc(C(=O)CCCCl)cc1
[10]
  T/C: 100 % of control
[11]
  T/C: 110 % of control
[15]
  T/C: 95 % of control

## C[N+]1(C)CCCC1
dose: 6.25 mg/kg/injection, schedule: Q04DX003 (ip), vehicle: saline
  T/C: 100 % of control
dose: 12.5 mg/kg/injection, schedule: Q04DX003 (ip), vehicle: saline
  T/C: 100 % of control

## CCCCCCCC(=O)NC1CC(O[C@H]2C[C@](O)(C(=O)CO)Cc3c(O)c4c(c(O)c32)C(=O)c2c(OC)cccc2C4=O)OC(C)C1O (some centres not stated)
dose: 0.78 mg/kg/injection, schedule: Q01DX009 (ip), vehicle: water
  T/C: 104 % of control
dose: 6.25 mg/kg/injection, schedule: Q01DX009 (ip), vehicle: water
  T/C: 150 % of control
dose: 12.5 mg/kg/injection, schedule: Q01DX009 (ip), vehicle: water
  T/C: 156 % of control
dose: 18.8 mg/kg/injection, schedule: Q04DX003 (ip), vehicle: water
  T/C: 106 % of control
dose: 25.0 mg/kg/injection, schedule: Q01DX009 (ip), vehicle: water
  T/C: 177 % of control
dose: 37.5 mg/kg/injection, schedule: Q04DX003 (ip), vehicle: water
  T/C: 109 % of control
dose: 75.0 mg/kg/injection, schedule: Q04DX003 (ip), vehicle: water
  T/C: 104 % of control and 123 % of control
dose: 150.0 mg/kg/injection, schedule: Q04DX003 (ip), vehicle: water
  T/C: 119 % of control

## ClC1=C(Cl)[C@@]2(Cl)[C@H]3[C@H]4C[C@H]([C@@H]5O[C@H]45)[C@H]3[C@@]1(Cl)C2(Cl)Cl
[16]
  T/C: 91 % of control
[17]
  T/C: 87 % of control

## CN1CCN(C(=O)c2ccc(Cl)c(Cl)c2)CC1
dose: 3.12 mg/kg/injection, schedule: Q01DX009 (ip), vehicle: saline with Tween-80
  T/C: 103 % of control
[1]
  T/C: 99 % of control
[2]
  T/C: 103 % of control
dose: 12.5 mg/kg/injection, schedule: Q04DX003 (ip), vehicle: saline with Tween-80
  T/C: 108 % of control
[3]
  T/C: 88 % of control
dose: 25.0 mg/kg/injection, schedule: Q04DX003 (ip), vehicle: saline with Tween-80
  T/C: 97 % of control
[4]
  T/C: 99 % of control
[5]
  T/C: 91 % of control
[13]
  T/C: 105 % of control
[6]
  T/C: 97 % of control

## Cc1cc(C)c(S(=O)(=O)OCCCl)c(C)c1
dose: 50.0 mg/kg/injection, schedule: Q01DX005 (ip), vehicle: Klucel (hydroxypropylcellulose) (HPC)
  T/C: 106 % of control
dose: 100.0 mg/kg/injection, schedule: Q01DX005 (ip), vehicle: Klucel (hydroxypropylcellulose) (HPC)
  T/C: 95 % of control

## CCCCOCN(COCCCC)c1ncccn1
[4]
  T/C: 108 % of control
[13]
  T/C: 106 % of control
[14]
  T/C: 104 % of control

## CCCC(=O)Nc1ccn(C2OC(COC(=O)CCC)C(OC(=O)CCC)C2OC(=O)CCC)c(=O)n1 (configuration not stated)
[17]
  T/C: 91 % of control
[18]
  T/C: 100 % of control
[7]
  T/C: 87 % of control
[8]
  T/C: 104 % of control
[12]
  T/C: 100 % of control
[11]
  T/C: 165 % of control and 177 % of control
dose: 200.0 mg/kg/injection, schedule: Q04DX003 (ip), vehicle: Klucel (hydroxypropylcellulose) (HPC)
  T/C: 109 % of control
[15]
  T/C: 181 % of control and 190 % of control
dose: 400.0 mg/kg/injection, schedule: Q04DX003 (ip), vehicle: Klucel (hydroxypropylcellulose) (HPC)
  T/C: 122 % of control

## C[CH2][Pb]([CH2]C)([CH2]C)[O]C(=O)c1ccc(N)cc1
dose: 0.75 mg/kg/injection, schedule: Q01DX009 (ip), vehicle: Klucel (hydroxypropylcellulose) (HPC)
  T/C: 100 % of control
dose: 1.5 mg/kg/injection, schedule: Q01DX009 (ip), vehicle: Klucel (hydroxypropylcellulose) (HPC)
  T/C: 110 % of control
dose: 1.56 mg/kg/injection, schedule: Q01DX009 (ip), vehicle: Klucel (hydroxypropylcellulose) (HPC)
  T/C: 111 % of control
dose: 3.0 mg/kg/injection, schedule: Q01DX009 (ip), vehicle: Klucel (hydroxypropylcellulose) (HPC)
  T/C: 110 % of control and 117 % of control
[16]
  T/C: 114 % of control and 119 % of control
dose: 6.0 mg/kg/injection, schedule: Q01DX009 (ip), vehicle: Klucel (hydroxypropylcellulose) (HPC)
  T/C: 119 % of control and 122 % of control
[17]
  T/C: 104 % of control
dose: 12.0 mg/kg/injection, schedule: Q01DX009 (ip), vehicle: Klucel (hydroxypropylcellulose) (HPC)
  T/C: 99 % of control
[18]
  T/C: 93 % of control and 106 % of control
